Experiments:
[1] = target: Cytochrome P450 2C9 (Homo sapiens, UniProt P11712); assay: Inhibition of CYP2C9; format: ADME; details: read-out: IC50
[2] = target: Cytochrome P450 2C19 (Homo sapiens, UniProt P33261); assay: Inhibition of CYP2C19; format: ADME; details: read-out: IC50
[3] = target: Cytochrome P450 2D6 (Homo sapiens, UniProt P10635); assay: Inhibition of CYP2D6; format: ADME; details: read-out: IC50
[4] = target: Cytochrome P450 3A4 (Homo sapiens, UniProt P08684); assay: Inhibition of CYP3A4; format: ADME; details: read-out: IC50
Chain of Cytochrome P450 3A4 (P08684 whole entry): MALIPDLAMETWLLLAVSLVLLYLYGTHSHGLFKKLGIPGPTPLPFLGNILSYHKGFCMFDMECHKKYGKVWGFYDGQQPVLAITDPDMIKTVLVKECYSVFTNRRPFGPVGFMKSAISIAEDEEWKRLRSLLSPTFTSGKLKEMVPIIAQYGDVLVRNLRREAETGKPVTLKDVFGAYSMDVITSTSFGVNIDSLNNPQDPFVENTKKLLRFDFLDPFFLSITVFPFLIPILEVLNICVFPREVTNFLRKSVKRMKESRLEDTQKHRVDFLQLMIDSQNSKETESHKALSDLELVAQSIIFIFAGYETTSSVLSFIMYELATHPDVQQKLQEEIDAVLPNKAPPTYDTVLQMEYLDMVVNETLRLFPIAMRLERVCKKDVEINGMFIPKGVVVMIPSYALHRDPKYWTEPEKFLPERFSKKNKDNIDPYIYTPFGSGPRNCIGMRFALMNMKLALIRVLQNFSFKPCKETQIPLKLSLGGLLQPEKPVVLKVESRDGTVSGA

[5] = Volume of distribution at steady state in rat at 2 mg/kg, iv; format: ADME, organism-based; parameters: dose 2 mg/kg, route intravenous; details: in vivo, read-out: Vdss
[6] = Half life in rat at 2 mg/kg, iv; format: ADME, organism-based; parameters: dose 2 mg/kg, route intravenous; details: in vivo
[7] = Apparent permeability across apical to basolateral side in human Caco2 cells at 10 uM; format: ADME, cell-based; details: Caco-2
[8] = Apparent permeability across basolateral to apical side in human Caco2 cells at 10 uM; format: ADME, cell-based; details: Caco-2
[9] = Fraction unbound in dog; format: ADME, organism-based, Canis lupus familiaris; details: in vivo
[10] = Cytotoxicity in mouse spleen macrophages assessed as phospholipidosis; details: Macrophage
[11] = Clearance in dog at 1 mg/kg, iv and 1 mg/kg, po; format: ADME, organism-based, Canis lupus familiaris; details: in vivo
[12] = Half life in dog at 1 mg/kg, iv and 1 mg/kg, po; format: ADME, organism-based, Canis lupus familiaris; details: in vivo
[13] = Volume of distribution at steady state in dog at 1 mg/kg, iv and 1 mg/kg, po; format: ADME, organism-based, Canis lupus familiaris; details: in vivo, read-out: Vdss
[14] = target: T1, Interstitial collagenase (Homo sapiens, UniProt P03956); assay: Inhibition of MMP1 using Mca-Pro-cyclohexyl-Ala-Gly-Nva-His-Ala- Dap(Dnp)-NH2 as substrate by fluorometric analysis
T1 sequence (P03956 whole entry): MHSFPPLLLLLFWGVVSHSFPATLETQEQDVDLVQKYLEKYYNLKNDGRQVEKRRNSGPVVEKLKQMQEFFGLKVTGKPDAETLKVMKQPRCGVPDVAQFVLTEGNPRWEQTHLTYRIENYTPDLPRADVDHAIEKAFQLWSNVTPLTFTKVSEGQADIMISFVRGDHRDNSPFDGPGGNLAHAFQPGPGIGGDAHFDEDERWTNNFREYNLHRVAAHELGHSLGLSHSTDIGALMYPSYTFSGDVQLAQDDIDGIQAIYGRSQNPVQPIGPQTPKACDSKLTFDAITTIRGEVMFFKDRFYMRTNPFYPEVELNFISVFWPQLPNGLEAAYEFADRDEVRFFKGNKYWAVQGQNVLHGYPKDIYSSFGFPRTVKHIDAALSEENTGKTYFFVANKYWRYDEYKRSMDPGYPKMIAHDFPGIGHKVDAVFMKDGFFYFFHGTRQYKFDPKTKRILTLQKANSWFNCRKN

[15] = target: Stromelysin-1 (Homo sapiens, UniProt P08254); assay: Inhibition of MMP3 using Mca-Pro-cyclohexyl-Ala-Gly-Nva-His-Ala- Dap(Dnp)-NH2 as substrate by fluorometric analysis
Chain of Stromelysin-1 (P08254 whole entry): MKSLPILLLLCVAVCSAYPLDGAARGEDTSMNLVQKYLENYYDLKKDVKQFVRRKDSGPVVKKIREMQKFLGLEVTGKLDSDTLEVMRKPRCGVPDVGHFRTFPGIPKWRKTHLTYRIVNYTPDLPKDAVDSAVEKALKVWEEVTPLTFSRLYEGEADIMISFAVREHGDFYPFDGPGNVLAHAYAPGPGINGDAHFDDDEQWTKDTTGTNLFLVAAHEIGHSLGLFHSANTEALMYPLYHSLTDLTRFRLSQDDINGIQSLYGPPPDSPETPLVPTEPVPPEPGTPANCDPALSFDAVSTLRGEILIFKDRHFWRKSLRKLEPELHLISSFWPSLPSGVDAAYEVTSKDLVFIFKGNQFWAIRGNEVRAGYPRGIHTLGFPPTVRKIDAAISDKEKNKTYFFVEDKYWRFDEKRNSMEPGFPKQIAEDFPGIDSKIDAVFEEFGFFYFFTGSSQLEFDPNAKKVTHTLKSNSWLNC

[16] = target: T2, Matrix metalloproteinase-19 (Homo sapiens, UniProt Q99542); assay: Inhibition of MMP19 using Mca-Pro-cyclohexyl-Ala-Gly-Nva-His-Ala- Dap(Dnp)-NH2 as substrate by fluorometric analysis
T2 sequence (Q99542 whole entry): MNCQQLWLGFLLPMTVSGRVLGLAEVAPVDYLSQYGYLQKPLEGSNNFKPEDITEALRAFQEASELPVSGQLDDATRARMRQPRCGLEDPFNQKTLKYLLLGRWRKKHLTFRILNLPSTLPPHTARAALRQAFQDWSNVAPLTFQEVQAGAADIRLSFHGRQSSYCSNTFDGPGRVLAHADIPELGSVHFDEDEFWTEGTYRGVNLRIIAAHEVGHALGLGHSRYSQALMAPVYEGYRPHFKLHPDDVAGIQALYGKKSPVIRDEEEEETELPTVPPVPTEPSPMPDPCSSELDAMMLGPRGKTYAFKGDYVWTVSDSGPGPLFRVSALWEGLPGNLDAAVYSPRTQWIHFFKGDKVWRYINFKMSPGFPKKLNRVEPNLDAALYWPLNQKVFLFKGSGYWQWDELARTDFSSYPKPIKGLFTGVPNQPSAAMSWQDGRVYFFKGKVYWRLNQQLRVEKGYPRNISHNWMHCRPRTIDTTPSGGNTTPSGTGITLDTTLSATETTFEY

[17] = test system: Rattus norvegicus; assay: Oral bioavailability in rat; format: ADME, organism-based; details: in vivo
[18] = Oral bioavailability in dog; format: ADME, organism-based, Canis lupus familiaris; details: in vivo
[19] = Renal elimination in rat at 2 mg/kg, iv; format: ADME, organism-based; parameters: dose 2 mg/kg, route intravenous; details: urine, read-out: Ae
[20] = Intrinsic clearance in human hepatocytes assessed per 10^6 cells; format: ADME, cell-based, Hepatocyte; details: read-out: CLH
[21] = target: 72 kDa type IV collagenase (Homo sapiens, UniProt P08253); assay: Inhibition of MMP2 using Mca-Pro-cyclohexyl-Ala-Gly-Nva-His-Ala- Dap(Dnp)-NH2 as substrate by fluorometric analysis; details: read-out: IC50
Chain of 72 kDa type IV collagenase (P08253 whole entry): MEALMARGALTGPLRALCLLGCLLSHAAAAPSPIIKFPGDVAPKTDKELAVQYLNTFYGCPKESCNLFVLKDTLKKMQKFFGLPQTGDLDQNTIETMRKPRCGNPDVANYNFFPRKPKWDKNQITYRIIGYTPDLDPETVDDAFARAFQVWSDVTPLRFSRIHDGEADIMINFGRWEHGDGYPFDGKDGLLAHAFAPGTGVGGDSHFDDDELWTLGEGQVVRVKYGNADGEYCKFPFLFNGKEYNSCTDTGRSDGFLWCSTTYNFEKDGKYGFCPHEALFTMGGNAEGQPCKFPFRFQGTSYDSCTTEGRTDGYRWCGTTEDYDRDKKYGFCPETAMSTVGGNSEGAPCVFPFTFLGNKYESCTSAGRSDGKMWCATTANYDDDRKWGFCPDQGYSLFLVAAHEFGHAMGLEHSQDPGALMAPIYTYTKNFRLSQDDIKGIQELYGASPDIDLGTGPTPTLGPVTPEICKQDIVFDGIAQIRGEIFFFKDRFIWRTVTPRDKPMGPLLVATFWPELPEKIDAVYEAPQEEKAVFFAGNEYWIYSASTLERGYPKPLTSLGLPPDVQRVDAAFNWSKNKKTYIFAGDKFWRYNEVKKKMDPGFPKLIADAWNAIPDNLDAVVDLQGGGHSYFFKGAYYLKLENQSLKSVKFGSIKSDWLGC

[22] = target: Matrix metalloproteinase-9 (Homo sapiens, UniProt P14780); assay: Inhibition of MMP9 using Mca-Pro-cyclohexyl-Ala-Gly-Nva-His-Ala- Dap(Dnp)-NH2 as substrate by fluorometric analysis; details: read-out: IC50
Chain of Matrix metalloproteinase-9 (P14780 whole entry): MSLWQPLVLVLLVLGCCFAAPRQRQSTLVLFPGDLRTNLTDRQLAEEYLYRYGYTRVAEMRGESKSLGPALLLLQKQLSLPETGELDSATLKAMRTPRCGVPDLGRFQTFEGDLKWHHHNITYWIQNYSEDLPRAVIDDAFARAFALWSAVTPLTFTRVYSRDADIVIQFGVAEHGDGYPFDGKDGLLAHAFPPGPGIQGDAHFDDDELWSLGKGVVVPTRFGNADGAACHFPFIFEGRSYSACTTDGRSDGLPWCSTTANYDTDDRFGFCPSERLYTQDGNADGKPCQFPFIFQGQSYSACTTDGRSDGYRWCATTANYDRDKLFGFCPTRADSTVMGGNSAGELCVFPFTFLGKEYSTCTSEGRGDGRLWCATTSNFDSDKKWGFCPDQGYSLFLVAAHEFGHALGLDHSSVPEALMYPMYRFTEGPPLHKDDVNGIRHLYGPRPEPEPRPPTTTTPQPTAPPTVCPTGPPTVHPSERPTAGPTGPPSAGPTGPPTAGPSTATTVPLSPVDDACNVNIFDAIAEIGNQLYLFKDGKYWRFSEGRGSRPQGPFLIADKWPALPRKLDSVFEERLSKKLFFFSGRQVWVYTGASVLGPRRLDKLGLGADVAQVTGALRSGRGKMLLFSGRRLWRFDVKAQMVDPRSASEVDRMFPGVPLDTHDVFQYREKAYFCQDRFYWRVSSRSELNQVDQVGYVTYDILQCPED

[23] = target: Macrophage metalloelastase (Homo sapiens, UniProt P39900); assay: Inhibition of MMP12 using Mca-Pro-cyclohexyl-Ala-Gly-Nva-His-Ala- Dap(Dnp)-NH2 as substrate by fluorometric analysis; details: read-out: IC50
Chain of Macrophage metalloelastase (P39900 whole entry): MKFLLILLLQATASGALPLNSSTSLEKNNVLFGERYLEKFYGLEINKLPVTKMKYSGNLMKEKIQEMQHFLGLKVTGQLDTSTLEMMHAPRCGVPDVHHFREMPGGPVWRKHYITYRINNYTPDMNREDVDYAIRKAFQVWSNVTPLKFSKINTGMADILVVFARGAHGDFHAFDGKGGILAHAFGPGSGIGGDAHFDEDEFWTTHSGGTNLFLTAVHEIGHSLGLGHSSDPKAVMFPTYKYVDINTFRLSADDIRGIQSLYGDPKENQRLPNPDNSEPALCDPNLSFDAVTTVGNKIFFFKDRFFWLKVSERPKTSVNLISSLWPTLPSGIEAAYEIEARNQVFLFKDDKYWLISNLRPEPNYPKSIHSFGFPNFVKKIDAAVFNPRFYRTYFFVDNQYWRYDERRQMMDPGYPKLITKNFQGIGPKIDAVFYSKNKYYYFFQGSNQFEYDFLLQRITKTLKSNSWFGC

[24] = target: Matrix metalloproteinase-14 (Homo sapiens, UniProt P50281); assay: Inhibition of MMP14 using Mca-Pro-cyclohexyl-Ala-Gly-Nva-His-Ala- Dap(Dnp)-NH2 as substrate by fluorometric analysis; details: read-out: IC50
[25] = Lipophilicity, log D of the compound; details: octanol/water
[26] = Thermodynamic solubility of the compound
[27] = Fraction unbound in human; format: ADME, organism-based; details: in vivo
[28] = Fraction unbound in rat; format: ADME, organism-based; details: in vivo
[29] = test system: Hepatocyte; assay: Intrinsic clearance in Sprague-Dawley rat hepatocytes assessed per 10^6 cells; format: ADME, cell-based

Chain of Cytochrome P450 2C19 (P33261 whole entry): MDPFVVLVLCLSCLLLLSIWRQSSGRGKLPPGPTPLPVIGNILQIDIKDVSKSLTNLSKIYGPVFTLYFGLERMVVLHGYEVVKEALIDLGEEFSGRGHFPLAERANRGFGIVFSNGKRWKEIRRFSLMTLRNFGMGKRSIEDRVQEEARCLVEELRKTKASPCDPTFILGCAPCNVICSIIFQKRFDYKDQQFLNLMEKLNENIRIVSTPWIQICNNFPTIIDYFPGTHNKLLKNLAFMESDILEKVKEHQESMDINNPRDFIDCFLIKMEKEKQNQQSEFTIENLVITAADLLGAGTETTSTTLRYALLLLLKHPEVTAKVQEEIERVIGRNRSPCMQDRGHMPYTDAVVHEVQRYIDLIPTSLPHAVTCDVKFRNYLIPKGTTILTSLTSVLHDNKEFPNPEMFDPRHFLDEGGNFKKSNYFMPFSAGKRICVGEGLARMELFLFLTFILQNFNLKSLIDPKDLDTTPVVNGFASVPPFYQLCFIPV
Chain of Cytochrome P450 2C9 (P11712 whole entry): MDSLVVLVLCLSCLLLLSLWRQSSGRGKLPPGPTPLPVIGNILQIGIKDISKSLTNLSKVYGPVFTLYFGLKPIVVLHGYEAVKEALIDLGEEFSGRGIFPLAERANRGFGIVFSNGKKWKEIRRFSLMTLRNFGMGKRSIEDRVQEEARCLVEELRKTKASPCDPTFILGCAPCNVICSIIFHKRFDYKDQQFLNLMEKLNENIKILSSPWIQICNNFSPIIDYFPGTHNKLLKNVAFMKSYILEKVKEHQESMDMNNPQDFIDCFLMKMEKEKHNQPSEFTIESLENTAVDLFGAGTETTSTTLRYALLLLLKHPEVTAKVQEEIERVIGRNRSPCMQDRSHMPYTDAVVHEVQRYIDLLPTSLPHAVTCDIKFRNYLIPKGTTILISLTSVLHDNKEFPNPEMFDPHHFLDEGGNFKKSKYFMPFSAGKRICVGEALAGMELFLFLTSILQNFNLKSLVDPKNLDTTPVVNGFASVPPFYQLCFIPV
Chain of Cytochrome P450 2D6 (P10635 whole entry): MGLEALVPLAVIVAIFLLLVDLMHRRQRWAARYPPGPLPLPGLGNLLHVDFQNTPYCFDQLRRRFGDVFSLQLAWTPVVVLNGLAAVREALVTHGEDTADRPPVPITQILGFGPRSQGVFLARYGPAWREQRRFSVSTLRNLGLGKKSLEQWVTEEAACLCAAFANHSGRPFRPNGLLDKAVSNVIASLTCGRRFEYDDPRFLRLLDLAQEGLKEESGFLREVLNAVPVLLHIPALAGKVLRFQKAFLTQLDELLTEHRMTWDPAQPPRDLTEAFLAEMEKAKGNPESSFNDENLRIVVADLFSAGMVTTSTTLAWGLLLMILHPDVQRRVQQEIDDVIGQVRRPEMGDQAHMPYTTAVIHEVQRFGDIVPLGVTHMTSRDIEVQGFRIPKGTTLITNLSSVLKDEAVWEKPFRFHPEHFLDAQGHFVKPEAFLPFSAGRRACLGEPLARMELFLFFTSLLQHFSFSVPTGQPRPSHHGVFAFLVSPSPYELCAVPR

Work on `O=C(NC1CCCS(=O)(=O)C1)c1ccc(Oc2ccc(C#C[C@]3(O)CN4CCC3CC4)cc2)cc1` (single isomer, unassigned; diastereomer 1) yielded an IC50 [1] greater than 10 µM, an IC50 [2] greater than 10 µM and an IC50 [3] greater than 10 µM. The IC50 [4] was greater than 10 µM, the Vd [5] was 5.9 L/kg and the half-life [6] was 4.8 h. The Papp A→B at 10 µM [7] was 1.3 ×10⁻⁶ cm/s, the Papp B→A at 10 µM [8] was 43.5 ×10⁻⁶ cm/s and the fraction unbound [9] was 0.33. For the same molecule, the EC50 [10] was 116 µM, the clearance [11] was 13 mL/min/kg and the half-life [12] was 5 h. For the same molecule, the Vd [13] was 3.9 L/kg, the IC50 [14] was greater than 10 µM and the IC50 [15] was greater than 10 µM. It also gave an IC50 [16] greater than 10 µM, an F [17] of 35% and a bioavailability [18] of 21%. For the same molecule, the dose excreted [19] was less than 1%, the hepatocyte CLint [20] was less than 2 µL/min/1e6 cells and the IC50 [21] was 5.1 µM. For the same molecule, the IC50 [22] was greater than 10 µM, the IC50 [23] was greater than 10 µM and the IC50 [24] was greater than 10 µM. It also gave a logD [25] of 1.4, a Therm_solubility [26] of 160 µM and a fraction unbound [27] of 0.25. For the same molecule, the fraction unbound [28] was 0.27 and the CLH [29] was 2.9 µL/min.
